The record followed here is patent US8664276B2, “Stilbene analogs and methods of treating cancer” (University of Kentucky Research Foundation, priority 2011, dated 2014).

The subject of data set [1] is β-catenin target genes. In words: RT-PCR of β-catenin target genes in LS174 cells. Particulars: RT-PCR. In kind it is cell-based. As for the experimental part: RT-PCR. LS174 cells were treated with DMSO or Wnt inhibitors. After 36 h, RNA was isolated using the RNeasy kit (Qiagen). RT-PCR was performed as described in Zhang et al., Mol Cell Biol 2006, 26, 2055-2064. The following primers were used: β-actin: 5′-CAACCGCGAGAAGATGAC-3′ (SEQ ID NO:01), 5′-AGGAAGGCTGGAAGAGTG-3′ (SEQ ID NO:02); surivivin: 5′-[…]-3′ (SEQ ID NO:03), 5′-[…]-3′ (SEQ ID NO:04); c-Myc: 5′-TGGGCTGTGAGGAGGTTTG-3′ (SEQ ID NO:05), 5′-TATGTGGAGCGGCTTCTCG-3′ (SEQ ID NO:06); Axin2: 5′-[…]-3′ (SEQ ID NO:07), 5′-[…]-3′ (SEQ ID NO:08); TCF4: 5′-[…]-3′ (SEQ ID NO:09), 5′-[…]-3′ (SEQ ID NO:10); pygopus2: 5′-GGCCGGTCTGCAAATGAAG-3′ (SEQ ID NO:11), 5′-TCCACCTCCAGTGCTGTAG-3′ (SEQ ID NO:12); Lgr5: 5′-[…]-3′ (SEQ ID NO:13), 5′-[…]-3′ (SEQ ID NO:14); CD44: 5′-[…]-3′ (SEQ ID NO:15), 5′-[…]-3′ (SEQ ID NO:16); Ki67: 5′-[…]-3′ (SEQ ID NO:17), 5′-[…]-3′ (SEQ ID NO:18).
Cyclin B1 levels were decreased, whereas p21^WAF1/CIP1 levels increased, consistent with the fact that p21^WAF1/CIP1 expression is repressed by c-Myc. β-catenin levels were not affected by resveratrol. Next, the mRNA levels of β-catenin target genes were analyzed using RT-PCR. Expression of survivin, Lgr5, CD44, and c-Myc were decreased in resveratrol-treated cells.

The subject of data set [2] is LS174 tumor xenografts. In words: LS174 tumor xenograft in nude mice. The class given is in vivo. As for the experimental part:
Tumor xenograft in nude mice. LS174 or HT29 colon cancer cells (2×10^6) were injected subcutaneously into both flanks of 6-8 week C57BL/6J athymic nude mice as described in Zhang et al., Mol Cell Biol 2006, 26, 2055-2064. Compound 4r or 4dd was dissolved in corn oil or PEG400. The mice were treated with 20 mg/kg/day of 4r by ip injection or gavage (50 μl/mouse). Control mice were treated with same volume of corn oil or PEG400. The body weight and tumor growth were analyzed twice weekly for one month. Tumor size was measured using digital caliper. The tumor volume was calculated by the formula: V=½LW^2 (mm^3).
In this example, the effects of the stilbene analogs of the present disclosure on CRC cells growth was analyzed. […] To test the effects of compound 4r on tumor growth in vivo, LS174 cells were injected subcutaneously into the flanks of athymic nude mice, which had been randomized into two groups. One group of mice was treated with compound 4r (20 mg/kg/day) dissolved in corn oil by intraperitoneal (ip) injection. The control mice were treated with the same volume of corn oil (50 μL) by ip injection. The mice were weighted and tumors measured twice weekly.

In data set [3] the target is MAT2A (Homo sapiens, UniProt P31153). In words: In-vitro SAM synthesis by MAT2A (LC-MS/MS). In kind it is biochemical. Details: GST (N); made in house. As for the experimental part: SAM and SAH analysis by LC-MS/MS. The LC-MS/MS system consisted of two Varian ProStar 210 LC Pumps coupled with a Varian 1200L triple quadrupole mass spectrometer. The separation was performed on a Hypercarb column (50 mm×2.1 mm, […], Thermo Scientific #35003-052130). Gradient elution started with 98% solution A (0.1% formic acid in water), followed by an increase to 38% solution B (0.1% formic acid in acetonitrile) in 8 min. The column was than flushed with 90% B for 5 min and regenerated with 98% A for another 8 min. The flow rate was 0.25 mL/min. Between the 3rd and 11th min, the eluent was switched to the ion source of the mass spectrometer. The precursor product transitions for SAM (m/z 399→250), SAH (m/z 385→250) and [d-4]-SAH (m/z 389→136) were monitored. The optimized ion source parameters were: Capillary Voltage: 32 V for both SAM and SAH, Collision energy: 9 V and 7V for SAM and SAH, respectively, Needle voltage: 5000 V and the Shield voltage: 600V. Nitrogen was used as the drying gas at a temperature of 300° C. and the interface heater was set to 50° C. The drying gas and nebulizing gas were set to 20 and 50 psi, respectively.
MAT2A, sequence (P31153 whole entry): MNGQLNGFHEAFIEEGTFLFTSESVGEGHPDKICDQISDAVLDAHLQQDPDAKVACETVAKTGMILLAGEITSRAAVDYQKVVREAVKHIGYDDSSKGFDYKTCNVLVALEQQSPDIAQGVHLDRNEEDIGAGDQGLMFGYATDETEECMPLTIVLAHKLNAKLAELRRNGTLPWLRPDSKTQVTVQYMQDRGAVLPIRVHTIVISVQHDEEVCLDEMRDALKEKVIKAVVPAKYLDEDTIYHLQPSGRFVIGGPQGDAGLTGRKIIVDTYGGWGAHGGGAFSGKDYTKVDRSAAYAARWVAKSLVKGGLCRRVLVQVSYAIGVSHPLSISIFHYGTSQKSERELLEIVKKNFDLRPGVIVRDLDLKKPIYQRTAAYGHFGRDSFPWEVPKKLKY
SAM synthesis. […] purified MAT2A was incubated with 1 mM L-methionine and 1 mM ATP in […] reaction solution (50 mM Tris.Cl, 50 mM KCl, 10 mM MgCl2) for 5 min at 25° C. […] SAM was analyzed by LC-MS/MS. […]

As for `CN(C)c1ccc(/C=C/c2c(F)cccc2F)cc1` [4r, (E)-4-(2,6-Difluorostyryl)-N,N-dimethylaniline], in data set [1], the “transcription of TCF4 genes” value was “inhibited”, the “transcription of Wnt target genes” value is reported as “strongly inhibited” and the “transcription of pygopus2 genes” value is “no significant effects”. Besides, the “body weight versus control mice” value in data set [2] (20 mg/kg/day ip in corn oil, within one month) is given as “no significant difference”. Besides, the “growth of tumor xenografts” value in data set [2] (LS174, 20 mg/kg/day ip in corn oil) is given as “significantly inhibited”. Further, the “MAT2A activity in SAM synthesis” value in data set [3] was “inhibit MAT2A activity”.
